# Measurements reported in PubChem BioAssay (NCI).
#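 Dose response: 5 concentrations. Exposure: 48 h. Format: 96-well plates. Endpoint: linear interpolation; highest concentration if not reached. At the TGI there is no net growth.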
# System: HCT-116 colon
# Test: inhibition of tumour cell growth, NCI panel, 48 h
row,SMILES,TGI
1,Cc1cn(C2CC(OC(c3ccccc3)(c3ccccc3)c3ccccc3)C(COC(c3ccccc3)(c3ccccc3)c3ccccc3)O2)c(=O)[nH]c1=O (configuration not stated),> 100 µM
2,CCOC(=O)C(NC(=O)c1ccc(N=NN(C)C)cc1)C(C)C (configuration not stated),> 100 µM
3,COc1cc(CCCOC2OC(COC3OCC(O)C(O)C3O)C(O)C(O)C2O)cc2cc(-c3ccc4c(c3)OCO4)oc12 (configuration not stated),> 175 µM
4,Cc1cc2c(cc1Cl)SC(NNc1cnc3ccccc3n1)=NS2(=O)=O,> 100 µM
5,O=[N+]([O-])c1ccc2nc3c(nc2c1)-c1c2ccccc2cc2cccc-3c12,> 100 µM
6,COc1ccc(CN2C(=O)C(=O)N(C)C2=O)c2ccccc12,> 10 µM
7,C(=N/Nc1ccc(-c2nc3ccccc3[nH]2)cc1)/c1c(-c2ccccc2)[nH]c2ccccc12,16.8 µM
8,CCOC(=O)c1c(NC(=S)Nc2ccc(C)cc2)sc2c1CCN(C)C2,> 100 µM
9,Cc1ccc(-n2cc(-c3ccc(Cl)cc3)c3c2N=CN2NC(c4ccco4)=NC32)cc1 (configuration not stated),31.8 µM
10,COc1cc(/C=C/c2cc(=O)cc(/C=C/c3ccc(O)c(OC)c3)o2)ccc1O,> 100 µM
11,c1ccc([P+](Cc2csnn2)(c2ccccc2)c2ccccc2)cc1,> 100 µM
12,NNC(=O)c1cccc2c1Oc1ccccc1S2,> 100 µM
13,COc1cc2c(cc1O)CC[n+]1cc3c(OC)c(OC)ccc3cc1-2,> 100 µM
14,NC(=S)N=Nc1c(O)cc(Nc2ccc(Cl)cc2Cl)c2ccccc12,> 100 µM
15,Cc1ccc(C(=O)c2[nH]c(Nc3cc(C)ccn3)c(C(=S)Nc3ccccc3)c2N)cc1,> 100 µM
16,CCC1(CC)C(=O)NC(=S)N=C1N,> 100 µM
17,CC1=NC(C)(C)N(O)C1(C)C,> 100 µM
18,O=c1oc2ccccc2c2nc3ccccc3cc12,> 100 µM

row,SMILES,TGI
1,CCCC[C@@H]1CCN2C[C@@H](O)[C@@H](O)[C@H]2[C@@H]1O,> 100 µM
2,Clc1cccc(C2ON=C(c3ccccc3)N2C23CC4CC(CC(C4)C2)C3)c1Cl (configuration not stated),> 10 µM
3,CNc1ccc2c(c1)Cc1ccccc1-2,> 100 µM
4,CCN(CC(=O)O)CC(=O)O,> 100 µM
5,O=c1cc(-c2ccccc2F)[nH]c2cc3c(cc12)OCO3,> 58.5 µM
6,COC1OC2COC(C)(C)OC2C2OC(C)(C)OC12 (configuration not stated),> 100 µM
7,CCNC(=S)N/N=C/c1ccccn1,73.7 µM
8,COc1ccc(CCCCl)c(C2=NCCc3ccccc32)c1,> 100 µM
9,O=C1NN=C(c2c[nH]c3ccccc23)CC1NCc1ccccc1 (configuration not stated),> 100 µM
10,C=C1CC=CC(C)(C)C1C/C=C(\C)C(O)CBr (configuration not stated),> 100 µM
11,O=C(NCCCNCCCCNCCCNC(=O)C(F)(F)F)C(F)(F)F,> 100 µM
12,CCOC(=O)C(C)NC(=O)N(C)C12CC3CC(CC(C3)C1)C2 (configuration not stated),> 500 µM
13,O=C(O)c1cc2ccccc2c(S(=O)(=O)O)c1O,> 100 µM
14,O=c1c2cc3c(=O)n(CCc4ccccc4CO)c(=O)c3cc2c(=O)n1CCc1ccccc1CO,> 100 µM
15,CCc1cc(=O)n(/C(C)=C/c2ccccc2)n1C,> 100 µM
16,CCOC(=O)c1[nH]c2nc(SC)nc(NC)c2c1N,> 100 µM
17,FC(F)=C(c1ccc(-c2ccc(Cl)cc2)cc1)C(F)(F)F,32 µM

# System: MDA-N
# Test: inhibition of tumour cell growth, NCI panel, 48 h
row,SMILES,TGI
1,CCOP(=O)(OCC)c1cc(-c2ccccc2)ccc1N,> 100 µM
2,CCOC(=O)C1=C(C)NC(=O)N([N+](=O)[O-])C1c1ccccc1C(F)(F)F (configuration not stated),79.7 µM
3,Brc1ccc2c(c1)-c1nc3c(cc1CC2)CCc1ccc(Br)cc1-3,> 100 µM
4,COP(=O)(CC(=O)C1OC(OCc2ccccc2)C(OCc2ccccc2)C(OCc2ccccc2)C1OCc1ccccc1)OC (configuration not stated),20.3 µM
5,Cc1cn(C2CC(OC(c3ccccc3)(c3ccccc3)c3ccccc3)C(COC(c3ccccc3)(c3ccccc3)c3ccccc3)O2)c(=O)[nH]c1=O (configuration not stated),> 100 µM
6,Cc1cc2c(cc1Cl)SC(NNc1cnc3ccccc3n1)=NS2(=O)=O,> 100 µM
7,O=[N+]([O-])c1ccc2nc3c(nc2c1)-c1c2ccccc2cc2cccc-3c12,47.9 µM
8,COc1ccc(CN2C(=O)C(=O)N(C)C2=O)c2ccccc12,> 10 µM
9,C(=N/Nc1ccc(-c2nc3ccccc3[nH]2)cc1)/c1c(-c2ccccc2)[nH]c2ccccc12,0.185 µM
10,CCOC(=O)c1c(NC(=S)Nc2ccc(C)cc2)sc2c1CCN(C)C2,> 100 µM
11,Cc1ccc(-n2cc(-c3ccc(Cl)cc3)c3c2N=CN2NC(c4ccco4)=NC32)cc1 (configuration not stated),> 100 µM
12,COc1cc2c(cc1O)CC[n+]1cc3c(OC)c(OC)ccc3cc1-2,> 100 µM
13,NC(=S)N=Nc1c(O)cc(Nc2ccc(Cl)cc2Cl)c2ccccc12,> 100 µM
14,Cc1ccc(C(=O)c2[nH]c(Nc3cc(C)ccn3)c(C(=S)Nc3ccccc3)c2N)cc1,> 100 µM
15,CC1=NC(C)(C)N(O)C1(C)C,> 100 µM
16,O=c1oc2ccccc2c2nc3ccccc3cc12,> 100 µM
17,Clc1cccc(C2ON=C(c3ccccc3)N2C23CC4CC(CC(C4)C2)C3)c1Cl (configuration not stated),> 10 µM
